Assay results published in US20150216171A1, “HERBICIDALLY ACTIVE BICYCLOARYL CARBOXYLIC ACID AMIDES” (BAYER CROPSCIENCE AG, priority 2012, published 2015).

Legend:
Assay type in all cases: in vivo
[1] = tested on: wheat; experiment: Pre-emergence test, damage to crop plants; details: application rate 320 g/ha, scored visually after 3 weeks
From the text: (§1) Seeds of monocotyledonous and dicotyledonous weed plants and crop plants are laid out in wood-fiber pots in sandy loam and covered with soil. The inventive compounds, formulated in the form of wettable powders (WP) or as emulsion concentrates (EC), are then applied to the surface of the soil cover in the form of an aqueous suspension or emulsion at a water application rate equating to 600 to 800 l/ha, with addition of 0.2% wetting agent. After the treatment, the pots are placed in a greenhouse and kept under good growth conditions for the test plants. The damage to the trial plants is scored visually after a test period of 3 weeks by comparison with untreated controls (herbicidal activity in percent (%): 100% efficacy=the plants have died, 0% efficacy=like control plants). In this test, for example, compounds no. […] Compounds no. […] Compounds no.

[2] = tested on: wheat; experiment: Post-emergence test, damage to crop plants; details: application rate 80 g/ha, scored visually after about 3 weeks
Experimental: (§2) Seeds of monocotyledonous and dicotyledonous weed and crop plants are laid out in sandy loam in wood-fiber pots, covered with soil and cultivated in a greenhouse under good growth conditions. 2 to 3 weeks after sowing, the test plants are treated at the one-leaf stage. The inventive compounds, formulated in the form of wettable powders (WP) or as emulsion concentrates (EC), are then sprayed as aqueous suspension or emulsion at a water application rate equating to 600 to 800 I/ha with the addition of 0.2% of wetting agent onto the green parts of the plants. After the trial plants have been left to stand in a greenhouse under optimal growth conditions for about 3 weeks, the efficacy of the formulations is scored visually in comparison to untreated controls (herbicidal action in percent (%): 100% efficacy=the plants have died, 0% efficacy=like control plants). In this test, for example, compounds no. […] Compounds no. […] Compounds no.

[3] = tested on: rice; experiment: Post-emergence test, damage to crop plants; details: application rate 80 g/ha, scored visually after about 3 weeks
Experimental: as §2

[4] = tested on: corn; experiment: Pre-emergence test, damage to crop plants; details: application rate 320 g/ha, scored visually after 3 weeks
From the text: as §1

[5] = tested on: corn; experiment: Post-emergence test, damage to crop plants; details: application rate 80 g/ha, scored visually after about 3 weeks
Experimental: as §2

Structure (SMILES)	damage in wheat [1]	damage in wheat [2]	damage in rice [3]	damage in corn [4]	damage in corn [5]
Cc1c(C(=O)Nc2nnnn2C)ccc2c1S(=O)(=O)C=C2 [7-1]	did not cause any damage at all	–	–	–	–
Cc1c(C(=O)Nc2nnnn2C)ccc2c1SCC=C2 [61-1]	did not cause any damage at all	did not cause any damage at all	did not cause any damage at all	–	–
CC1=Cc2c(ccc(C(=O)Nc3nonc3-n3cncn3)c2Cl)S1(=O)=O [60-115]	did not cause any damage at all	–	–	did not cause any damage at all	–
CC1=Cc2c(ccc(C(=O)Nc3nonc3C)c2Cl)S1(=O)=O [17-19]	did not cause any damage at all	did not cause any damage at all	did not cause any damage at all	did not cause any damage at all	–
Cc1c(C(=O)Nc2nnnn2C)ccc2c1S(=O)(=O)CC=C2 [67-1]	–	did not cause any damage at all	–	–	did not cause any damage at all
CC1=Cc2c(ccc(C(=O)Nc3nnnn3Cc3ccc(Cl)cc3)c2Cl)S1(=O)=O [59-51]	–	did not cause any damage at all	–	–	did not cause any damage at all
